The values that follow come from US10570117B2, “Phenylimidazole compound” (Otsuka Pharmaceutical Factory, Inc., priority 2015, dated 2020).

In brackets after ≈: the same amount, converted by molar mass. Where two headings read alike, the source gives them in different places.

Data set [1] can be described thus: Solubility in gastric juice or intestinal juice model fluid (precipitation method using DMSO). It is filed as physicochemical. The conditions noted are these: room temperature. The procedure: Solubility in Gastric Juice or Intestinal Juice Model Fluid
Measurement was performed by a precipitation method using DMSO. Specifically, each of the dimethyl sulfoxide (DMSO) solutions of the compounds was individually added to 1st fluid for Disintegration Test of Japanese Pharmacopoeia (pH: 1.2) or 2nd fluid for Disintegration Test of Japanese Pharmacopoeia (pH: 6.8), and the mixtures were stirred by shaking at room temperature for 24 hours. Subsequently, insoluble substances in each mixture were removed by filtration, and the UV absorption of each filtrate was measured. The obtained values were individually applied to the calibration curves of the compounds prepared in advance to calculate the concentrations of the compounds dissolved (μg/mL).

Where [2] appears, read: pH 1.2, simulated gastric fluid, kinetic from dmso stock, 1st fluid for Disintegration Test of Japanese Pharmacopoeia (pH: 1.2), read-out: Solubility (μg/mL) 1st fluid.
Where [3] appears, read: pH 6.8, kinetic from dmso stock, 2nd fluid for Disintegration Test of Japanese Pharmacopoeia (pH: 6.8), read-out: Solubility (μg/mL) 2nd fluid.
[4] abbreviates: 2nd fluid for Disintegration Test of Japanese Pharmacopoeia (pH: 6.8), 24 hours.

For `COc1cc(-c2cnc(C3CC(F)(F)C3)[nH]2)ccc1OCc1ccc(C(F)(F)F)nc1` [Example 2], the solubility at 24 h is more than 88 µg/mL in data set [1] (setting [2]) and 25.1 µg/mL (≈ 57.1 µM) in data set [1] (setting [3]).
On the same counts, the results for `COc1cc(-c2cnc(C3CCCC(F)(F)C3)[nH]2)ccc1OCc1ccc(C(F)(F)F)cn1` (centres unmarked) [Example 5] are 90.1 µg/mL (≈ 193 µM) and 1.1 µg/mL (≈ 2.35 µM).
For `COc1cc(OCc2ccc(C(F)(F)F)cn2)ccc1-c1cnc(C2CC(F)(F)C2)[nH]1` [Example 9] the same measures were 87.7 µg/mL (≈ 200 µM) and 1.8 µg/mL (≈ 4.1 µM).
As for `COc1cc(-c2cnc(C3CCC(F)(F)C3)[nH]2)ccc1OCc1ccc(C(F)(F)F)cn1` (centres unmarked) [Example 10], the solubility at 24 h was 89.5 µg/mL (≈ 197 µM) in data set [1] (setting [2]) and 17.3 µg/mL (≈ 38.2 µM) in data set [1] (setting [3]).
`COc1cc(-c2cnc(C3CC(F)(F)C3)[nH]2)ccc1OCc1ccc(C(F)(F)F)cn1` [Example 11]: the solubility at 24 h was 80.1 µg/mL (≈ 182 µM) in data set [1] (setting [2]) and 5.4 µg/mL (≈ 12.3 µM) in data set [1] (setting [3]).
Regarding `COc1cc(-c2nc(-c3ccc(Cl)nc3)[nH]c2C)ccc1OCc1ccc(C(F)(F)F)nc1` [Example 28], the melting point (as a rule, the temperature of the solid-liquid transition) fell in the range of 209 to 211 °C.
Same read-out and setting: the figure for `COc1cc(OCc2ccc(C#N)cn2)ccc1-c1c[nH]c(-c2ccc(Cl)nc2)n1` [Example 35] is 233 to 237 °C (dec.).
On the same count and under the same terms, the same measure for `COc1cc(OCc2cnccn2)ccc1-c1c[nH]c(-c2ccc(Cl)nc2)n1` [Example 50]: 210 to 213 °C (dec.).
On to `COc1cc(-c2c[nH]c(C3CCCCC3)n2)ccc1OCc1ccc(C(F)(F)F)nc1` [Example 51], for which the results for the solubility at 24 h in data set [1] (setting [2]) and in data set [1] (setting [3]) were 90.2 µg/mL (≈ 209 µM) and 9 µg/mL (≈ 20.9 µM), respectively.
`COc1cc(-c2c[nH]c(-c3ccc(Cl)nc3)n2)ccc1OCc1ccc(C(F)(F)F)nc1` [Example 52]: the melting point lay within 179 to 181 °C.
Still for that read-out and setting: the figure for `COc1cc(OCc2ccc(C(F)(F)F)nc2)ccc1-c1c[nH]c(-c2ccc(Cl)nc2)n1` [Example 54] is 218 to 220 °C; for `COc1cc(OCc2ccc(C(F)(F)F)cn2)ccc1-c1c[nH]c(-c2ccc(SC(C)(C)C)cn2)n1` [Example 59] it is 159 to 160 °C; for `COc1ccc(-c2nc(-c3ccc(OCc4ccc(C(F)(F)F)cn4)c(OC)c3)c[nH]2)cn1` [Example 70] it is 217 to 218 °C (dec.).
The same measure, in the same setting: the same measure for `CCOc1ccc(-c2nc(-c3ccc(OCc4ccc(Br)cc4F)cc3OC)c[nH]2)cn1` [Example 84]: 181 to 184 °C; for `COc1cc(OCc2ccc(Br)cc2F)ccc1-c1c[nH]c(-c2ccccn2)n1` [Example 90]: 219 to 222 °C.
Still for that read-out and setting: the figure for `COc1cc(OCc2ccc(Br)cc2F)ccc1-c1c[nH]c(-c2ccc(Cl)nc2)n1` [Example 92] is 220 to 222 °C; for `COc1cc(-c2c[nH]c(-c3ccc(C(F)(F)F)nc3)n2)ccc1OCc1ccc(Br)cc1F` [Example 95] it is 175 to 177 °C.
The compound `COc1cc(OCc2ccc(C(F)(F)F)cn2)ccc1-c1c[nH]c(-c2ccc(C(F)(F)F)nc2)n1` [Example 96] gave a melting point of 209 to 211 °C.
On the same count and under the same terms, the same measure for `COc1cc(OCc2ccc(Br)cc2F)ccc1-c1c[nH]c(-c2ccc(C(F)(F)F)nc2)n1` [Example 99]: 183 to 185 °C; for `COc1cc(OCc2ccc(F)cc2F)ccc1-c1cnc(-c2ccc(Cl)nc2)[nH]1` [Example 101]: 213 to 218 °C.
As to `COc1cc(-c2cnc(-c3ccc(F)nc3)[nH]2)ccc1O` [Example 110, 4-[2-(6-fluoropyridin-3-yl)-1H-imidazol-5-yl]-2-methoxyphenol], the solubility at 24 h in data set [1] (setting [2]) and in data set [1] (setting [3]) was more than 57 µg/mL each time.
As to `COc1cc(OCc2cccc(C(F)(F)F)n2)ccc1-c1cnc(-c2ccc(F)nc2)[nH]1` [Example 113], the solubility at 24 h in data set [1] (setting [2]) was 21.1 µg/mL (≈ 47.5 µM); in data set [1] (setting [3]), 0.5 µg/mL (≈ 1.13 µM).
On the same counts, the results for `COc1cc(-c2c[nH]c(-c3ccc(F)nc3)n2)ccc1OCc1ccc(C(F)(F)F)cn1` [Example 125] are 23.1 µg/mL (≈ 52 µM) and 0.5 µg/mL (≈ 1.13 µM).
For `COc1cc(OC(C)c2cccc(C(F)(F)F)n2)ccc1-c1cnc(-c2ccc(F)nc2)[nH]1` (centres unmarked) [Example 127] the same measures were 17.1 µg/mL (≈ 37.3 µM) and less than 0.3 µg/mL.
On the same counts, the results for `COc1cc(OC(C)c2ncc(C(F)(F)F)cc2F)ccc1-c1cnc(-c2ccc(F)nc2)[nH]1` (centres unmarked) [Example 129] are 13.6 µg/mL (≈ 28.5 µM) and less than 0.3 µg/mL.
`COc1cc(OC(C)c2ccc(C(F)(F)F)nc2)ccc1-c1cnc(-c2ccc(F)nc2)[nH]1` (centres unmarked) [Example 130] yielded a melting point of 72 to 105 °C.
Still for that read-out and setting: the same measure for `COc1cc(OCc2ccc(Cl)cc2F)ccc1-c1cnc(-c2ccc(F)nc2)[nH]1` [Example 143]: 178 to 180 °C; for `COc1cc(OCc2ccc(Br)cc2F)ccc1-c1cnc(-c2ccc(F)nc2)[nH]1` [Example 144]: 177 to 180 °C.
For the compound `COc1cc(O[C@@H](C)c2ccc(C(F)(F)F)cc2)ccc1-c1cnc(-c2ccc(F)nc2)[nH]1` [Example 145], the values for the solubility at 24 h in data set [1] (setting [2]) and in data set [1] (setting [3]) were less than 0.3 µg/mL and 4 µg/mL (≈ 8.74 µM), respectively.
Regarding `COc1cc(O[C@H](C)c2ccc(C(F)(F)F)nc2)ccc1-c1cnc(-c2ccc(F)nc2)[nH]1` [Example 146], the “Solubility (μg/mL) 2nd fluid” value in data set [1] (setting [4]) was 1.2 µg/mL (≈ 2.62 µM). Further, in data set [1] (setting [2]), the solubility at 24 h is 9.9 µg/mL (≈ 21.6 µM).
With `COc1cc(O[C@@H](C)c2ccc(C(F)(F)F)nc2)ccc1-c1cnc(-c2ccc(F)nc2)[nH]1` [Example 147], the solubility at 24 h in data set [1] (setting [2]) was 12.4 µg/mL (≈ 27 µM); in data set [1] (setting [3]), 3.6 µg/mL (≈ 7.85 µM).
For `COc1cc(O[C@H](C)c2ccc(C(F)(F)F)cc2)ccc1-c1cnc(-c2ccc(F)nc2)[nH]1` [Example 148] the same measures were less than 0.3 µg/mL and 5.3 µg/mL (≈ 11.6 µM).
For the compound `COc1cc(O[C@H](C)c2ccc(C(F)(F)F)nc2)ccc1-c1cnc(-c2ccc(F)nc2)[nH]1` [Example 149], the “Solubility (μg/mL) 1st fluid” value in data set [1] (1st fluid for Disintegration Test of Japanese Pharmacopoeia (pH: 1.2), 24 hours) worked out at 19.6 µg/mL (≈ 42.8 µM). In addition, the “Solubility (μg/mL) 2nd fluid” value in data set [1] (setting [4]) was found to be 3.9 µg/mL (≈ 8.51 µM).
Compound `COc1cc(OCc2cc(C(F)(F)F)ccn2)ccc1-c1[nH]c(-c2ccc(F)nc2)nc1Cl` [Example 173] came in with a melting point of 185 to 187 °C.
Same read-out and setting: the figure for `COc1cc(OCc2cc(C(F)(F)F)ccn2)ccc1-c1[nH]c(-c2ccc(Cl)nc2)nc1Cl` [Example 174] is 176 to 178 °C; for `COc1cc(-c2[nH]c(-c3ccc(F)nc3)nc2Cl)ccc1OCc1ccc(C(F)(F)F)nc1` [Example 177] it is 202 to 204 °C.
Take `COc1cc(OCc2cccc(C#N)n2)ccc1-c1[nH]c(C2CCC(F)(F)CC2)nc1Cl` [Example 186]: the solubility at 24 h in data set [1] (setting [2]) was 23.2 µg/mL (≈ 50.6 µM); in data set [1] (setting [3]) it was less than 0.3 µg/mL.
Consider `COc1cc(OCc2cnc(Cl)cn2)ccc1-c1nc(-c2ccc(Cl)nc2)[nH]c1Cl` [Example 215], for which the melting point lay within 232 to 234 °C.
On to `COc1cc(OCc2cnc(Cl)cn2)ccc1-c1nc(-c2ccc(F)nc2)[nH]c1Cl` [Example 217], for which the melting point was 231 to 233 °C (dec.).
For the compound `COc1cc(OCc2ccc(C(F)(F)F)cn2)ccc1-c1nc(-c2ccc(F)cn2)[nH]c1Cl` [Example 231], the melting point is 222 to 224 °C (dec.).
As to `COc1cc(OCc2ccc(C(F)(F)F)cn2)ccc1-c1nc(-c2ccc(Cl)cn2)[nH]c1Cl` [Example 232], the melting point was 197 to 199 °C (dec.).
The same measure, in the same setting: the figure for `COc1cc(OCc2cccnc2C(F)(F)F)ccc1-c1[nH]c(-c2ccc(Cl)nc2)nc1Cl` [Example 243] is 195 to 199 °C.
